The record followed here is PubChem BioAssay (NCI).

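Results reflect a 48-hour exposure of cells in 96-well plates to compound at five concentrations. GI50 marks 50% less growth. TGI: total growth inhibition.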 Some results are limits rather than exact numbers.

One assay relates to 786-0 renal. Kind of assay: NCI-60 cell line screen, 48 h.
Consider `CCc1ccc(NC(=O)Nc2c[nH]c3ccccc23)cc1`, for which the GI50 was 8.55 µM and the TGI was greater than 81.9 µM.

With `Nc1ncnc2sc(=S)c3c(c12)CCC3`, the GI50 is 46.6 µM and the TGI is greater than 100 µM.

`CC(=O)OC1c2ccccc2CC2(OC(C)=O)c3ccccc3C12` (stereo not given) came in with a TGI greater than 100 µM.

As for `N=C(N)c1nn(C2OC(CO)C(O)C2O)c2nc[nH]c(=O)c12` (stereo not given), the GI50 was 0.642 µM and the TGI was 4.61 µM.

For the compound `Nc1nc(/C=C\c2ccc([N+](=O)[O-])o2)nc(N2CCN(c3ccccc3)CC2)n1`, the GI50 was 5.5 µM and the TGI came out at 25.8 µM.

With `COc1ccc2c(c1)CCC1C2CCC2(C)C1CCC2(O)CNC(=O)CCCCC1CCSS1` (stereo not given), the GI50 was 17.7 µM and the TGI was found to be 64 µM.

In the next assay the test system is A498 renal. Kind of assay: NCI-60 cell line screen, 48 h.
For the compound `CCc1ccc(NC(=O)Nc2c[nH]c3ccccc23)cc1`, the GI50 was greater than 46 µM and the TGI is greater than 72.8 µM.

As for `Nc1ncnc2sc(=S)c3c(c12)CCC3`, the GI50 was 28.2 µM and the TGI is 79.5 µM.

Consider `CC(=O)OC1c2ccccc2CC2(OC(C)=O)c3ccccc3C12` (stereo not given), for which the TGI is greater than 100 µM.

For `N=C(N)c1nn(C2OC(CO)C(O)C2O)c2nc[nH]c(=O)c12` (stereo not given), the GI50 was 1.46 µM and the TGI worked out at 4.74 µM.

With `Nc1nc(/C=C\c2ccc([N+](=O)[O-])o2)nc(N2CCN(c3ccccc3)CC2)n1`, the GI50 is 21.5 µM and the TGI came out at 49.4 µM.

Regarding `COc1ccc2c(c1)CCC1C2CCC2(C)C1CCC2(O)CNC(=O)CCCCC1CCSS1` (stereo not given), the GI50 was 73.4 µM and the TGI was greater than 100 µM.

In a further assay the test system is A549 NSCLC. Put plainly: NCI-60 cell line screen, 48 h.
With `CCc1ccc(NC(=O)Nc2c[nH]c3ccccc23)cc1`, the GI50 was 6.26 µM and the TGI was greater than 48 µM.

Turning to `Nc1ncnc2sc(=S)c3c(c12)CCC3`, the GI50 was 44.8 µM and the TGI is greater than 100 µM.

Take `CC(=O)OC1c2ccccc2CC2(OC(C)=O)c3ccccc3C12` (stereo not given): the TGI is greater than 100 µM.

In the case of `N=C(N)c1nn(C2OC(CO)C(O)C2O)c2nc[nH]c(=O)c12` (stereo not given), the GI50 was 0.659 µM and the TGI worked out at 13.4 µM.

For the compound `Nc1nc(/C=C\c2ccc([N+](=O)[O-])o2)nc(N2CCN(c3ccccc3)CC2)n1`, the GI50 is 19.9 µM and the TGI was 86.5 µM.

Turning to `COc1ccc2c(c1)CCC1C2CCC2(C)C1CCC2(O)CNC(=O)CCCCC1CCSS1` (stereo not given), the GI50 is 5.73 µM and the TGI is greater than 100 µM.

For another assay, the system named is ACHN renal. Put plainly: NCI-60 cell line screen, 48 h.
For `CCc1ccc(NC(=O)Nc2c[nH]c3ccccc23)cc1`, the GI50 was 23.2 µM and the TGI was greater than 84.3 µM.

For the compound `Nc1ncnc2sc(=S)c3c(c12)CCC3`, the GI50 was 26.3 µM and the TGI is greater than 100 µM.

For the compound `CC(=O)OC1c2ccccc2CC2(OC(C)=O)c3ccccc3C12` (stereo not given), the TGI is greater than 100 µM.

Turning to `N=C(N)c1nn(C2OC(CO)C(O)C2O)c2nc[nH]c(=O)c12` (stereo not given), the GI50 was 0.292 µM and the TGI was determined as 1.99 µM.

For the compound `Nc1nc(/C=C\c2ccc([N+](=O)[O-])o2)nc(N2CCN(c3ccccc3)CC2)n1`, the GI50 is 4.45 µM and the TGI came out at 21.6 µM.

For `COc1ccc2c(c1)CCC1C2CCC2(C)C1CCC2(O)CNC(=O)CCCCC1CCSS1` (stereo not given), the GI50 was 53.6 µM and the TGI is greater than 100 µM.

In a further assay the test system is K-562 leukemia. Kind of assay: NCI-60 cell line screen, 48 h.
As to `CCc1ccc(NC(=O)Nc2c[nH]c3ccccc23)cc1`, the GI50 is 6.89 µM and the TGI was greater than 100 µM.

Take `Nc1ncnc2sc(=S)c3c(c12)CCC3`: the GI50 is 36.1 µM and the TGI was greater than 100 µM.

`CC(=O)OC1c2ccccc2CC2(OC(C)=O)c3ccccc3C12` (stereo not given): the TGI is greater than 100 µM.

Take `N=C(N)c1nn(C2OC(CO)C(O)C2O)c2nc[nH]c(=O)c12` (stereo not given): the GI50 was 0.367 µM and the TGI is 3.63 µM.

With `Nc1nc(/C=C\c2ccc([N+](=O)[O-])o2)nc(N2CCN(c3ccccc3)CC2)n1`, the GI50 is 4.63 µM and the TGI was determined as 26.7 µM.

With `COc1ccc2c(c1)CCC1C2CCC2(C)C1CCC2(O)CNC(=O)CCCCC1CCSS1` (stereo not given), the GI50 is 2.63 µM and the TGI is greater than 100 µM.

A further assay relates to MCF7 breast. Kind of assay: NCI-60 cell line screen, 48 h.
As to `CCc1ccc(NC(=O)Nc2c[nH]c3ccccc23)cc1`, the GI50 is 29.3 µM and the TGI was greater than 65.5 µM.

Regarding `Nc1ncnc2sc(=S)c3c(c12)CCC3`, the GI50 was 25.3 µM and the TGI came to 92.8 µM.

`CC(=O)OC1c2ccccc2CC2(OC(C)=O)c3ccccc3C12` (stereo not given) had a TGI greater than 100 µM.

On to `N=C(N)c1nn(C2OC(CO)C(O)C2O)c2nc[nH]c(=O)c12` (stereo not given), for which the GI50 is 0.482 µM and the TGI amounted to 5.09 µM.

On to `Nc1nc(/C=C\c2ccc([N+](=O)[O-])o2)nc(N2CCN(c3ccccc3)CC2)n1`, for which the GI50 was 3.07 µM and the TGI stood at 29.1 µM.

With `COc1ccc2c(c1)CCC1C2CCC2(C)C1CCC2(O)CNC(=O)CCCCC1CCSS1` (stereo not given), the GI50 was 10.3 µM and the TGI came to 40.8 µM.

A further assay relates to NCI-H226 lung. Put plainly: NCI-60 cell line screen, 48 h.
For `CCc1ccc(NC(=O)Nc2c[nH]c3ccccc23)cc1`, the GI50 was 7.29 µM and the TGI is greater than 52.4 µM.

For the compound `Nc1ncnc2sc(=S)c3c(c12)CCC3`, the GI50 was 28.7 µM and the TGI was greater than 100 µM.

In turn, `CC(=O)OC1c2ccccc2CC2(OC(C)=O)c3ccccc3C12` (stereo not given) registered a TGI greater than 100 µM.

Turning to `N=C(N)c1nn(C2OC(CO)C(O)C2O)c2nc[nH]c(=O)c12` (stereo not given), the GI50 was 0.611 µM and the TGI was determined as 3.74 µM.

As to `Nc1nc(/C=C\c2ccc([N+](=O)[O-])o2)nc(N2CCN(c3ccccc3)CC2)n1`, the GI50 is 17.5 µM and the TGI was 52.8 µM.

`COc1ccc2c(c1)CCC1C2CCC2(C)C1CCC2(O)CNC(=O)CCCCC1CCSS1` (stereo not given): the GI50 was 13.3 µM and the TGI is greater than 100 µM.

The test system of a further assay is PC-3 prostate. Kind of assay: NCI-60 cell line screen, 48 h.
In the case of `CCc1ccc(NC(=O)Nc2c[nH]c3ccccc23)cc1`, the GI50 was 5.13 µM and the TGI is greater than 63.7 µM.

In the case of `Nc1ncnc2sc(=S)c3c(c12)CCC3`, the GI50 is 32.1 µM and the TGI is greater than 100 µM.

`CC(=O)OC1c2ccccc2CC2(OC(C)=O)c3ccccc3C12` (stereo not given) displayed a TGI greater than 100 µM.

Regarding `N=C(N)c1nn(C2OC(CO)C(O)C2O)c2nc[nH]c(=O)c12` (stereo not given), the GI50 is 0.788 µM and the TGI turned out to be 6.74 µM.

For `Nc1nc(/C=C\c2ccc([N+](=O)[O-])o2)nc(N2CCN(c3ccccc3)CC2)n1`, the GI50 was 7.81 µM and the TGI came to 60.6 µM.

As to `COc1ccc2c(c1)CCC1C2CCC2(C)C1CCC2(O)CNC(=O)CCCCC1CCSS1` (stereo not given), the GI50 was 5.91 µM and the TGI was greater than 100 µM.

Another assay deals with SF-295 CNS. Put plainly: NCI-60 cell line screen, 48 h.
For `CCc1ccc(NC(=O)Nc2c[nH]c3ccccc23)cc1`, the GI50 is 23.8 µM and the TGI is greater than 56 µM.

Consider `Nc1ncnc2sc(=S)c3c(c12)CCC3`, for which the GI50 is 39.6 µM and the TGI was greater than 100 µM.

With `CC(=O)OC1c2ccccc2CC2(OC(C)=O)c3ccccc3C12` (stereo not given), the TGI was greater than 100 µM.

`N=C(N)c1nn(C2OC(CO)C(O)C2O)c2nc[nH]c(=O)c12` (stereo not given): the GI50 is 0.643 µM and the TGI is 3.26 µM.

For the compound `Nc1nc(/C=C\c2ccc([N+](=O)[O-])o2)nc(N2CCN(c3ccccc3)CC2)n1`, the GI50 is 22.1 µM and the TGI is 73.8 µM.

Consider `COc1ccc2c(c1)CCC1C2CCC2(C)C1CCC2(O)CNC(=O)CCCCC1CCSS1` (stereo not given), for which the GI50 was 19.4 µM and the TGI worked out at 79.6 µM.

The next assay has as its system TK-10 renal. Kind of assay: NCI-60 cell line screen, 48 h.
With `CCc1ccc(NC(=O)Nc2c[nH]c3ccccc23)cc1`, the GI50 was greater than 46.1 µM and the TGI is greater than 70.9 µM.

Take `Nc1ncnc2sc(=S)c3c(c12)CCC3`: the GI50 is 39.6 µM and the TGI was greater than 100 µM.

The compound `CC(=O)OC1c2ccccc2CC2(OC(C)=O)c3ccccc3C12` (stereo not given) displayed a TGI greater than 100 µM.

With `N=C(N)c1nn(C2OC(CO)C(O)C2O)c2nc[nH]c(=O)c12` (stereo not given), the GI50 is 0.363 µM and the TGI turned out to be 2.17 µM.

With `Nc1nc(/C=C\c2ccc([N+](=O)[O-])o2)nc(N2CCN(c3ccccc3)CC2)n1`, the GI50 is 5.77 µM and the TGI is 32 µM.

For `COc1ccc2c(c1)CCC1C2CCC2(C)C1CCC2(O)CNC(=O)CCCCC1CCSS1` (stereo not given), the GI50 was 17.7 µM and the TGI worked out at 57 µM.
